The record followed here is patent publication US20240262848A1, “HETEROCYCLIC COMPOUNDS, COMPOSITIONS THEREOF, AND METHODS OF TREATMENT THEREWITH” (BeiGene, Ltd., priority 2022, published 2024).

The test system of test [1] is pERK1/2(THR202/TYR204) level in SW620 cell line. Briefly: KRAS G12V pERK assay in SW620 cells (HTRF). It is filed as cell-based. As to conditions: Homo sapiens, SW-620, Table 4, 2 hrs compound treatment. The method, then:
SW620 cell line was used in this study. Cells were maintained in RPMI 1640 supplemented with 10% fetal bovine serum (Thermo Fisher), 50 units/mL penicillin and streptomycin (Thermo Fisher) and kept at 37° C. in a humidified atmosphere of 5% CO2 in air. Cells were reinstated from frozen stocks that were laid down within 30 passages from the original cells purchased. 40000 cells per well were seeded into a 96-well plate and incubated overnight. Cells were treated with a 10-point dilution series. The final compound concentration is from 0 to 10 μM. After 2 hrs compound treatment, cells were lysed, and the pERK1/2(THR202/TYR204) level in the cell lysates was detected by HTRF kit (Cisbio). In brief, a total of 16 μL of cell lysate from each well of a 96-well plate was transferred to a 384-well white assay plate. Lysate from each well was incubated with 2 μL of Eu3+-cryptate (donor) labeled anti-phospho-ERK1/2 and 2 μL of D)2 (acceptor) labeled anti-phospho-ERK1/2 antibodies (Cisbio) overnight in dark at room temperature. When donor and acceptor are in close proximity, excitation of the donor with laser triggers a Fluorescence Resonance Energy Transfer (FRET) towards the acceptor, which in turn fluoresces at 655 nm wavelength. FRET signals were measured using a PHERAstar FSX reader (BMG Labtech). IC50 determination was performed by fitting the curve of percent inhibition versus the log of the inhibitor concentration using Dotmatics.
(In TR-FRET formats the signal depends on donor and acceptor labels being close together.)

The target of test [2] is GST-tagged GDP-loaded KRAS G12V (amino acids 1-169) (Homo sapiens, UniProt P01116, G12V). As to the kind of experiment: KRAS G12V probe displacement assay (TR-FRET). It is filed as binding. To be noted: Table 4; KRAS G12V 2 nM, biotinylated probe 2 2.5 nM. The protocol: Plates are incubated at 24 °C for 1 hr. […] After 1 hr incubation at 24° C.
Chain of GST-tagged GDP-loaded KRAS G12V (amino acids 1-169) (P01116 1-169 isoform P01116-2 G12V): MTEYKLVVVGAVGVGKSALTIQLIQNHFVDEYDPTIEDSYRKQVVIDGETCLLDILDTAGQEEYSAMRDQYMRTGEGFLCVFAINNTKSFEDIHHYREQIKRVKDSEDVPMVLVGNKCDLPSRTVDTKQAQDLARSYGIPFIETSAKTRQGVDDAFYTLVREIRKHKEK

The term IC50 denotes the concentration at which inhibition is half-maximal. As for `CN1c2nc(OC[C@@]34CCCN3C[C@H](F)C4)nc3c(F)c(-c4cc(N)cc(Cl)c4C(F)(F)F)nc(c23)O[C@@H]2CCC[C@H](O)[C@H]21` (relative stereo) [Example 47, (7aR*,11S*,11aR*)-5-(5-amino-3-chloro-2-(trifluoromethyl)phenyl)-4-fluoro-2-(((2R,7aS)-2-fluorotetrahydro-1H-pyrrolizin-7a(5H)-yl)methoxy)-12-methyl-7a, 8,10,11,11a, 12-hexahydro-9H-7-oxa-1,3,6,12-tetraazapleiaden-11-ol], the IC50 is 73 nM in test [1] and 0.61 nM in test [2].
For `CN1c2nc(OC[C@@]34CCCN3C[C@H](F)C4)nc3c(F)c(-c4cc(N)cc(Cl)c4C(F)(F)F)nc(c23)OC[C@H]2COC[C@@H]21` (single isomer, unassigned) [Example 68 Isomer 1], in that order: 51 nM and 1.8 nM.
Taken in the same sequence, the figures for `C#Cc1c(F)ccc2cc(O)cc(-c3cc4c5c(nc(OC[C@@]67CCCN6C[C@H](F)C7)nc5c3F)N(C)CCCO4)c12` [Example 1, 5-ethynyl-6-fluoro-4-(11-fluoro-2-(((2R,7aS)-2-fluorotetrahydro-1H-pyrrolizin-7a(5H)-yl)methoxy)-4-methyl-4,5,6,7-tetrahydro-[1,5]oxazocino[4,3,2-de]quinazolin-10-yl)naphthalen-2-ol] were 624 nM and 3.2 nM.
For `Cc1cc(N)cc(-c2nc3c4c(nc(OC[C@@]56CCCN5C[C@H](F)C6)nc4c2F)N(C)CCO3)c1C(F)(F)F` [Example 3, 3-(4-fluoro-2-(((2R,7aS)-2-fluorotetrahydro-1H-pyrrolizin-7a(5H)-yl)methoxy)-10-methyl-9,10-dihydro-8H-7-oxa-1,3,6,10-tetraazacyclohepta[de]naphthalen-5-yl)-5-methyl-4-(trifluoromethyl)aniline], in that order: 402 nM and 15 nM.
In the case of `Nc1cc(Cl)c(C(F)(F)F)c(-c2nc3c4c(nc(OC[C@@]56CCCN5C[C@H](F)C6)nc4c2F)N(C2CC2)CCCO3)c1` [Example 4, 3-chloro-5-(11-cyclopropyl-4-fluoro-2-(((2R,7aS)-2-fluorotetrahydro-1H-pyrrolizin-7a(5H)-yl)methoxy)-8,9,10,11-tetrahydro-7-oxa-1,3,6,11-tetraazacycloocta[de]naphthalen-5-yl)-4-(trifluoromethyl)aniline], the IC50 in test [1] amounted to 549 nM; in test [2], 8.1 nM.
For `C#Cc1c(F)ccc2cc(O)cc(-c3nc4c5c(nc(OC[C@@]67CCCN6C[C@H](F)C7)nc5c3F)N(C3CC3)CCCO4)c12` [Example 5, 4-(11-cyclopropyl-4-fluoro-2-(((2R,7aS)-2-fluorotetrahydro-1H-pyrrolizin-7a(5H)-yl)methoxy)-8,9,10,11-tetrahydro-7-oxa-1,3,6,11-tetraazacycloocta[de]naphthalen-5-yl)-5-ethynyl-6-fluoronaphthalen-2-ol], in that order: 288 nM and 0.87 nM.
For `CC1CCOc2nc(-c3cc(N)cc(Cl)c3C(F)(F)F)c(F)c3nc(OC[C@@]45CCCN4C[C@H](F)C5)nc(c23)N1C` (stereo partly drawn) [Example 6, 3-chloro-5-(4-fluoro-2-(((2R,7aS)-2-fluorotetrahydro-1H-pyrrolizin-7a(5H)-yl)methoxy)-10,11-dimethyl-8,9,10,11-tetrahydro-7-oxa-1,3,6,11-tetraazacycloocta[de]naphthalen-5-yl)-4-(trifluoromethyl)aniline], in that order: 63 nM and 1.8 nM.
Taken in the same sequence, the figures for `Nc1cc(Cl)c(C(F)(F)F)c(-c2nc3c4c(nc(OC[C@@]56CCCN5C[C@H](F)C6)nc4c2F)N(CCO)CCO3)c1` [Example 7, 2-(5-(5-amino-3-chloro-2-(trifluoromethyl)phenyl)-4-fluoro-2-(((2R,7aS)-2-fluorotetrahydro-1H-pyrrolizin-7a(5H)-yl)methoxy)-8,9-dihydro-10H-7-oxa-1,3,6,10-tetraazacyclohepta[de]naphthalen-10-yl)ethan-1-ol] were 586 nM and 2.5 nM.
In the case of `Nc1cc(Cl)c(C(F)(F)F)c(-c2nc3c4c(nc(OC[C@@]56CCCN5C[C@H](F)C6)nc4c2F)N(C2CC2)CCO3)c1` [Example 8, 3-chloro-5-(10-cyclopropyl-4-fluoro-2-(((2R,7aS)-2-fluorotetrahydro-1H-pyrrolizin-7a(5H)-yl)methoxy)-9,10-dihydro-8H-7-oxa-1,3,6,10-tetraazacyclohepta[de]naphthalen-5-yl)-4-(trifluoromethyl)aniline], the values for the IC50 in test [1] and in test [2] were 716 nM and 9.9 nM, respectively.
Taken in the same sequence, the figures for `CN1CCCOc2nc(-c3cc(N)cc(Cl)c3C(F)(F)F)c(F)c3nc(OC[C@@]45CCCN4C[C@H](F)C5)nc1c23` [Example 9, 3-chloro-5-(4-fluoro-2-(((2R,7aS)-2-fluorotetrahydro-1H-pyrrolizin-7a(5H)-yl)methoxy)-11-methyl-8,9,10,11-tetrahydro-7-oxa-1,3,6,11-tetraazacycloocta[de]naphthalen-5-yl)-4-(trifluoromethyl)aniline] were 249 nM and 5.2 nM.
Taken in the same sequence, the figures for `CN1CC2(COC2)COc2nc(-c3cc(N)cc(Cl)c3C(F)(F)F)c(F)c3nc(OC[C@@]45CCCN4C[C@H](F)C5)nc1c23` [Example 11, 3-chloro-5-(4-fluoro-2-(((2R,7aS)-2-fluorotetrahydro-1H-pyrrolizin-7a(5H)-yl)methoxy)-11-methyl-10,11-dihydro-8H-7-oxa-1,3,6,11-tetraazaspiro[cycloocta[de]naphthalene-9,3′-oxetan]-1(11a), 2,3a, 3 al(6a), 5-pentaen-5-yl)-4-(trifluoromethyl)aniline] were 624 nM and 16 nM.
For `CC1CN(C)c2nc(OC[C@@]34CCCN3C[C@H](F)C4)nc3c(F)c(-c4cc(N)cc(Cl)c4C(F)(F)F)nc(c23)O1` (stereo partly drawn) [Example 12, 3-chloro-5-(4-fluoro-2-(((2R,7aS)-2-fluorotetrahydro-1H-pyrrolizin-7a(5H)-yl)methoxy)-8,10-dimethyl-9,10-dihydro-8H-7-oxa-1,3,6,10-tetraazacyclohepta[de]naphthalen-5-yl)-4-(trifluoromethyl)aniline], in that order: 152 nM and 3.2 nM.
With `C#Cc1c(F)ccc2cc(O)cc(-c3nc4c5c(nc(OC[C@@]67CCCN6C[C@H](F)C7)nc5c3F)N(C3CCC3)CCCO4)c12` [Example 13, 4-(11-cyclobutyl-4-fluoro-2-(((2R,7aS)-2-fluorotetrahydro-1H-pyrrolizin-7a(5H)-yl)methoxy)-8,9,10,11-tetrahydro-7-oxa-1,3,6,11-tetraazacycloocta[de]naphthalen-5-yl)-5-ethynyl-6-fluoronaphthalen-2-ol], the IC50 in test [1] came to 141 nM; in test [2], 1.4 nM.
Regarding `CC1CCN(C)c2nc(OC[C@@]34CCCN3C[C@H](F)C4)nc3c(F)c(-c4cc(N)cc(Cl)c4C(F)(F)F)nc(c23)O1` (stereo partly drawn) [Example 14, 3-chloro-5-(4-fluoro-2-(((2R,7aS)-2-fluorotetrahydro-1H-pyrrolizin-7a(5H)-yl)methoxy)-8,11-dimethyl-8,9,10,11-tetrahydro-7-oxa-1,3,6,11-tetraazacycloocta[de]naphthalen-5-yl)-4-(trifluoromethyl)aniline], the IC50 in test [1] came out at 414 nM; in test [2], 13 nM.
